Earlier results as cited in PMC7756498 (Chemistry (Weinheim an Der Bergstrasse, Germany), 2020).

System: P. aeruginosa
Conditions: ref [18]

- MIC (anti-Pseudomonas activity): 4 to 16 µg/mL
Substance: sansanmycin B [sansanmycin B 13]
